Measurements: BindingDB's records for doi:10.1021/jm00019a005 (Warner-Lambert, 1995)

Molecular target: Type-2 angiotensin II receptor (Oryctolagus cuniculus)
Experiment: The compound was tested for binding affinity against Angiotensin II receptor, type 2 from rabbit uterus membrane by using [125I]AngII as radioligand

Row | Compound | IC50 [µM]
1 | CCCCc1ncc(C=C2C(=O)NC(=O)N2CCCC)n1Cc1ccc(-c2ccccc2-c2nnn[nH]2)cc1 [1-Butyl-5-[1-{2-butyl-3-[2'-(1H-tetrazol-5-yl)-biphenyl-4-ylmethyl]-3H-imidazol-4-yl}-meth-(Z)-ylidene]-imidazolidine-2,4-dione] | 0.789
2 | CCCCc1ncc(/C=C2/C(=O)N(CCCC)C(=O)N2CCCC)n1Cc1ccc(C(=O)OC)cc1 [4-{2-Butyl-5-[1,3-dibutyl-2,5-dioxo-imidazolidin-(4Z)-ylidenemethyl]-imidazol-1-ylmethyl}-benzoic acid methyl ester] | 5.87
